pIC50: −log10 of the molar value. Several values for one entry are separate records, joined by “and”; a condition that tells them apart may be missing. Identical values can stand only once.
What was measured:
[1] = molecular target: Angiotension II Receptor; assay: Receptor Binding Assay: competition with [^125 I] (Sar^1,Ile^8) AngII on microsomal membranes; conditions: pH 7.4, 60 min, room temperature
Procedure: Binding of [^125 I] (Sar^1,Ile^8) AngII
The binding of [^125 I] (Sar^1,Ile^8) AngII to microsomal membranes is initiated by the addition of reconstituted membranes (1:10 vols.) in freshly made 50.0 mMTris.HCl buffer, pH 7.4 containing 0.25% heat inactivated bovine serum albumin (BSA):80 ul membrane protein (10 to 20 ug/assay) to wells already containing 100 ul of incubation buffer (as described above) and 20 ul [^125 I] (Sar^1,Ile^8) AngII (Specific Activity, 2200 Ci/mmole). Non-specific binding is measured in the presence of 1.0 uM unlabeled (Sar^1,Ile^8) AngII, added in 20 ul volume. Specific binding for [^125 I] (Sar^1,Ile^8) AngII is greater than 90%. In competition studies, experimental compounds are diluted in dimethylsulfoxide (DMSO) and added in 20 ul to wells before the introduction of tissue membranes. This concentration of DMSO is found to have no negative effects on the binding of [^125 I] (Sar^1,Ile^8) AngII to the membranes. Assays are performed in triplicate. […] Presoaking the filter sheet in 0.1% polyethylenemine in normal saline (PEI/Saline) greatly reduces the radioactivity retained by the filter blanks. […] The filters are removed from the filter grid and counted in a Parkard® Cobra Gamma Counter for 1 min. […] The binding data are analyzed by the non-linear interactive "LUNDON-1" program (LUNDON SOFTWARE Inc., Cleveland, Ohio U.S.A.). […]

[2] = tested on: ANGIOTENSIN II (A11) VASOPRESSOR RESPONSE; assay: AII Challenge: blockade of angiotensin II vasopressor response in conscious SHR; assay type: in vivo, rat (Conscious Male Okamoto-Aoki SHR); conditions: for Change (single reading, systolic blood pressure) / Response After A11 (systolic blood pressure) / Control Before A11 (systolic blood pressure): 15 mg/kg
Description: By administering a compound of this invention to a rat, and then challenging with angiotensin II, a blockage of the vasopressor response is realized.
Conscious Male Okamoto-Aoki SHR, 16-20 weeks old, weighing approximately 330 g are purchased from Charles River Labs (Wilmington, Mass.). Conscious rats are restrained in a supine position with elastic tape. The area at the base of the tail is locally anesthetized by subcutaneous infiltration with 2% procaine. The ventral caudal artery and vein are isolated, and a cannula made of polyethylene (PE) 10-20 tubing (fused together by heat) is passed into the lower abdominal aorta and vena cava, respectively. The cannula is secured, heparinized (1,000 I.U./ml), sealed and the wound is closed. The animals are placed in plastic restraining cages in an upright position. The cannula is attached to a Statham P23Db pressure transducer, and pulsatile blood pressure is recorded to 10-15 minutes with a Gould Brush recorder. (Chan et al., (Drug Development Res., 18:75-94, 1989).
Angiotensin II (human sequence, Sigma Chem. Co., St. Louis, Mo.) of 0.05 and 0.1 ug/kg i.v. is injected into all rats (predosing response). Then a test compound, vehicle or a known angiotensin II antagonist is administered i.v., i.p. or orally to each set of rats. […] The vasopressor response of angiotensin II is measured for the increase in systolic blood pressure in mmHg. The percentage of antagonism or blockade of the vasopressor response of angiotensin II by a compound is calculated using the vasopressor response (increase in systolic blood pressure) of angiotensin II of each rat predosing the compound as 100%. A compound is considered active if at 30 mg/kg i.v. it antagonized at least 50% of the response.

[3] = 15 mg/kg IV (single), AII 0.05 mcg/kg IV, 120 min post dose
[4] = 15 mg/kg IV (single), AII 0.05 mcg/kg IV, 180 min post dose
[5] = 15 mg/kg IV (single), AII 0.1 mcg/kg IV, 120 min post dose
[6] = 15 mg/kg IV (single), AII 0.1 mcg/kg IV, 180 min post dose
[7] = 15 mg/kg IV, AII 0.05 mcg/kg IV, 30 min post dose
[8] = 15 mg/kg IV, AII 0.05 mcg/kg IV, 60 min post dose
[9] = 15 mg/kg IV, AII 0.05 mcg/kg IV, 90 min post dose
[10] = 15 mg/kg IV, AII 0.1 mcg/kg IV, 30 min post dose
[11] = 15 mg/kg IV, AII 0.1 mcg/kg IV, 60 min post dose
[12] = 15 mg/kg IV, AII 0.1 mcg/kg IV, 90 min post dose

Structure (SMILES): CCCCc1nc2c(c(=O)n1Cc1ccc(-c3ccccc3-c3nnn[nH]3)cc1)CN(C(=O)C(C)(C)O)CC2 [Example 16]
- pIC50 [1]: 6.22
- Average % Inhibition (angiotensin blockage) of AII vasopressor response [2, 3]: 39%
- Average Change (systolic blood pressure response to AII) [2, 3]: 27.5 mmHg
- Change (single reading, systolic blood pressure) [2, 3]: 35 mmHg and 20 mmHg
- Average % Inhibition (angiotensin blockage) of AII vasopressor response [2, 4]: 6%
- Average Change (systolic blood pressure response to AII) [2, 4]: 42.5 mmHg
- Change (single reading, systolic blood pressure) [2, 4]: 55 mmHg and 30 mmHg
- Average % Inhibition (angiotensin blockage) of AII vasopressor response [2, 5]: 35%
- Average Change (systolic blood pressure response to AII) [2, 5]: 32.5 mmHg
- Change (single reading, systolic blood pressure) [2, 5]: 40 mmHg and 25 mmHg
- Average % Inhibition (angiotensin blockage) of AII vasopressor response [2, 6]: 5%
- Average Change (systolic blood pressure response to AII) [2, 6]: 47.5 mmHg
- Change (single reading, systolic blood pressure) [2, 6]: 50 mmHg and 45 mmHg
- Response After A11 (systolic blood pressure) ([2]; 15 mg/kg IV (single), after AII 0.05 mcg/kg IV, 120 min post dose): 245 mmHg and 195 mmHg
- Response After A11 (systolic blood pressure) ([2]; 15 mg/kg IV (single), after AII 0.05 mcg/kg IV, 180 min post dose): 230 mmHg and 195 mmHg
- Response After A11 (systolic blood pressure) ([2]; 15 mg/kg IV (single), after AII 0.1 mcg/kg IV, 120 min post dose): 240 mmHg and 200 mmHg
- Response After A11 (systolic blood pressure) ([2]; 15 mg/kg IV (single), after AII 0.1 mcg/kg IV, 180 min post dose): 260 mmHg and 210 mmHg
- Control Before A11 (systolic blood pressure) ([2]; 15 mg/kg IV (single), before AII 0.05 mcg/kg IV, 120 min post dose): 210 mmHg and 175 mmHg
- Control Before A11 (systolic blood pressure) ([2]; 15 mg/kg IV (single), before AII 0.05 mcg/kg IV, 180 min post dose): 175 mmHg and 165 mmHg
- Control Before A11 (systolic blood pressure) ([2]; 15 mg/kg IV (single), before AII 0.1 mcg/kg IV, 120 min post dose): 200 mmHg and 175 mmHg
- Control Before A11 (systolic blood pressure) ([2]; 15 mg/kg IV (single), before AII 0.1 mcg/kg IV, 180 min post dose): 210 mmHg and 165 mmHg
- Average % Inhibition (angiotensin blockage) of AII vasopressor response [2, 7]: 72%
- Average Change (systolic blood pressure response to AII) [2, 7]: 12.5 mmHg
- Change (single reading, systolic blood pressure) [2, 7]: 15 mmHg and 10 mmHg
- Average % Inhibition (angiotensin blockage) of AII vasopressor response [2, 8]: 67%
- Average Change (systolic blood pressure response to AII) [2, 8]: 15 mmHg
- Average % Inhibition (angiotensin blockage) of AII vasopressor response [2, 9]: 37%
- Average Change (systolic blood pressure response to AII) [2, 9]: 28.5 mmHg
- Average % Inhibition (angiotensin blockage) of AII vasopressor response [2, 10]: 85%
- Average Change (systolic blood pressure response to AII) [2, 10]: 7.5 mmHg
- Change (single reading, systolic blood pressure) [2, 10]: 10 mmHg and 5 mmHg
- Average % Inhibition (angiotensin blockage) of AII vasopressor response [2, 11]: 57%
- Average Change (systolic blood pressure response to AII) [2, 11]: 21.5 mmHg
- Average % Inhibition (angiotensin blockage) of AII vasopressor response [2, 12]: 33%
- Average Change (systolic blood pressure response to AII) [2, 12]: 33.5 mmHg
- Change (single reading, systolic blood pressure) [2, 12]: 42 mmHg and 25 mmHg
- Response After A11 (systolic blood pressure) ([2]; 15 mg/kg IV, after AII 0.05 mcg/kg IV, 30 min post dose): 210 mmHg and 185 mmHg
- Response After A11 (systolic blood pressure) ([2]; 15 mg/kg IV, after AII 0.05 mcg/kg IV, 60 min post dose): 215 mmHg and 190 mmHg
- Response After A11 (systolic blood pressure) ([2]; 15 mg/kg IV, after AII 0.05 mcg/kg IV, 90 min post dose): 225 mmHg and 190 mmHg
- Response After A11 (systolic blood pressure) ([2]; 15 mg/kg IV, after AII 0.1 mcg/kg IV, 30 min post dose): 205 mmHg and 180 mmHg
- Response After A11 (systolic blood pressure) ([2]; 15 mg/kg IV, after AII 0.1 mcg/kg IV, 60 min post dose): 220 mmHg and 188 mmHg
- Response After A11 (systolic blood pressure) ([2]; 15 mg/kg IV, after AII 0.1 mcg/kg IV, 90 min post dose): 230 mmHg and 195 mmHg
- Control Before A11 (systolic blood pressure) ([2]; 15 mg/kg IV, before AII 0.05 mcg/kg IV, 30 min post dose): 195 mmHg and 175 mmHg
- Control Before A11 (systolic blood pressure) ([2]; 15 mg/kg IV, before AII 0.05 mcg/kg IV, 60 min post dose): 190 mmHg and 185 mmHg
- Control Before A11 (systolic blood pressure) ([2]; 15 mg/kg IV, before AII 0.05 mcg/kg IV, 90 min post dose): 183 mmHg and 175 mmHg
- Control Before A11 (systolic blood pressure) ([2]; 15 mg/kg IV, before AII 0.1 mcg/kg IV, 30 min post dose): 195 mmHg and 175 mmHg
- Control Before A11 (systolic blood pressure) ([2]; 15 mg/kg IV, before AII 0.1 mcg/kg IV, 60 min post dose): 190 mmHg and 175 mmHg
- Control Before A11 (systolic blood pressure) ([2]; 15 mg/kg IV, before AII 0.1 mcg/kg IV, 90 min post dose): 188 mmHg and 170 mmHg
